Reference: article PMC6437697 (Journal of Medicinal Chemistry, 2019)

Legend:
Assay in all cases: KINOMEscan
Format in all cases: binding
Settings in all cases: read-out: % control activity remaining
LZK = molecular target: T1, LZK (Homo sapiens, UniProt O43283)
T1 construct: purchased Eurofins DiscoverX KINOMEscan
T1 sequence (O43283 1-966): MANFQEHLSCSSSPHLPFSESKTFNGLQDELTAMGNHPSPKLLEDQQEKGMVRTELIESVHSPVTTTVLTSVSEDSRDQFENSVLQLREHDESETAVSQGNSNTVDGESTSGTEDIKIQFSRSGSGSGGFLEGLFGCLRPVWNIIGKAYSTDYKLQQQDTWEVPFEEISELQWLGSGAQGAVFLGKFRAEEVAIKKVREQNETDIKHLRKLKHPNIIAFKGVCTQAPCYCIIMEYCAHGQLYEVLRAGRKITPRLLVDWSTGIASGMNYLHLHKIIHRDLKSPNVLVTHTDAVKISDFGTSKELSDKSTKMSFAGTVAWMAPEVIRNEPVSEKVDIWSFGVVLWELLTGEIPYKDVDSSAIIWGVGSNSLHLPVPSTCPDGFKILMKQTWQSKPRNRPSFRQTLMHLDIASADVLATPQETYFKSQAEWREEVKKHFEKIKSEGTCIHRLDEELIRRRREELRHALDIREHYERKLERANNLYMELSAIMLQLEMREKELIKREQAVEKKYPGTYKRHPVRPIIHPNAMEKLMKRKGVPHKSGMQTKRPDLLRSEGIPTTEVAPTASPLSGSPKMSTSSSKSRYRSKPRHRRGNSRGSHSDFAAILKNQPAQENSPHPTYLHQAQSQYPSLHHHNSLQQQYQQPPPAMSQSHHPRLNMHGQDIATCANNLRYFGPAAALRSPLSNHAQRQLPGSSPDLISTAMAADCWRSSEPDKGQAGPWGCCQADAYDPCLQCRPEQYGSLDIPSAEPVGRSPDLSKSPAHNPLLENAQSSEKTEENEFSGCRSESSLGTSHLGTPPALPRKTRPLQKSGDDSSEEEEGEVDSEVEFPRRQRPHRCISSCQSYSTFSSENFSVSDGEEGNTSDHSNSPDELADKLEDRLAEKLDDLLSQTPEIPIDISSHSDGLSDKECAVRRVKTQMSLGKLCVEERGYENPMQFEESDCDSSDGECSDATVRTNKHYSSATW

EGFR(G719C) = molecular target: T2, EGFR(G719C) (Homo sapiens, UniProt P00533, G719C)
T2 construct: purchased Eurofins DiscoverX KINOMEscan

FLT3(K663Q) = molecular target: T3, FLT3(K663Q) (Homo sapiens, UniProt P36888, K663Q)
T3 construct: purchased Eurofins DiscoverX KINOMEscan
T3 sequence (P36888 27-993 K663Q): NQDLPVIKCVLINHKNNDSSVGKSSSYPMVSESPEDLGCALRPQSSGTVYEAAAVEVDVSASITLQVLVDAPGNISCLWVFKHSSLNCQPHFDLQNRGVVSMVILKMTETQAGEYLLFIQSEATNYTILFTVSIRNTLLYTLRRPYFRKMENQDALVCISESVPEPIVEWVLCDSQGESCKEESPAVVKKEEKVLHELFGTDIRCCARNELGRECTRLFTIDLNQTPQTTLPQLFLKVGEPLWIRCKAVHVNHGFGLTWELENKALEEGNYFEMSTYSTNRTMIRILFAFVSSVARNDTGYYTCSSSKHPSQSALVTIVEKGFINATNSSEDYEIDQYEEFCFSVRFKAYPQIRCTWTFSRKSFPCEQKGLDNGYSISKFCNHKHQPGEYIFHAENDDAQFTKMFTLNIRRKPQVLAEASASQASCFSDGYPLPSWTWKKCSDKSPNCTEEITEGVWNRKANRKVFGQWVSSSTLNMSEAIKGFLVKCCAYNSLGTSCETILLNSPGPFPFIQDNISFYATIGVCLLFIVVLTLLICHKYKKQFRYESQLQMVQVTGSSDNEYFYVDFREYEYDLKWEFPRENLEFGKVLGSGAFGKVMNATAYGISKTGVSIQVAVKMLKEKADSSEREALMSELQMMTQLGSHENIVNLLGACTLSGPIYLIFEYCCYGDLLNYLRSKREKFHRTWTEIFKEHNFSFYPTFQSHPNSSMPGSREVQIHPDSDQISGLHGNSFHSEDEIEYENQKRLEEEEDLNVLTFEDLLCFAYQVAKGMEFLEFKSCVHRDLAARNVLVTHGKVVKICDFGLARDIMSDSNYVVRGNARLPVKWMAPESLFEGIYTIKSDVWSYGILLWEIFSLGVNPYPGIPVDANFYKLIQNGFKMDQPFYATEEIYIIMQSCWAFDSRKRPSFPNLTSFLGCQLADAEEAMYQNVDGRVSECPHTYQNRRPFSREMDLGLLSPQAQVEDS

ERBB3 = molecular target: T4, ERBB3 (Homo sapiens, UniProt P21860)
T4 construct: purchased Eurofins DiscoverX KINOMEscan
T4 sequence (P21860 20-1342): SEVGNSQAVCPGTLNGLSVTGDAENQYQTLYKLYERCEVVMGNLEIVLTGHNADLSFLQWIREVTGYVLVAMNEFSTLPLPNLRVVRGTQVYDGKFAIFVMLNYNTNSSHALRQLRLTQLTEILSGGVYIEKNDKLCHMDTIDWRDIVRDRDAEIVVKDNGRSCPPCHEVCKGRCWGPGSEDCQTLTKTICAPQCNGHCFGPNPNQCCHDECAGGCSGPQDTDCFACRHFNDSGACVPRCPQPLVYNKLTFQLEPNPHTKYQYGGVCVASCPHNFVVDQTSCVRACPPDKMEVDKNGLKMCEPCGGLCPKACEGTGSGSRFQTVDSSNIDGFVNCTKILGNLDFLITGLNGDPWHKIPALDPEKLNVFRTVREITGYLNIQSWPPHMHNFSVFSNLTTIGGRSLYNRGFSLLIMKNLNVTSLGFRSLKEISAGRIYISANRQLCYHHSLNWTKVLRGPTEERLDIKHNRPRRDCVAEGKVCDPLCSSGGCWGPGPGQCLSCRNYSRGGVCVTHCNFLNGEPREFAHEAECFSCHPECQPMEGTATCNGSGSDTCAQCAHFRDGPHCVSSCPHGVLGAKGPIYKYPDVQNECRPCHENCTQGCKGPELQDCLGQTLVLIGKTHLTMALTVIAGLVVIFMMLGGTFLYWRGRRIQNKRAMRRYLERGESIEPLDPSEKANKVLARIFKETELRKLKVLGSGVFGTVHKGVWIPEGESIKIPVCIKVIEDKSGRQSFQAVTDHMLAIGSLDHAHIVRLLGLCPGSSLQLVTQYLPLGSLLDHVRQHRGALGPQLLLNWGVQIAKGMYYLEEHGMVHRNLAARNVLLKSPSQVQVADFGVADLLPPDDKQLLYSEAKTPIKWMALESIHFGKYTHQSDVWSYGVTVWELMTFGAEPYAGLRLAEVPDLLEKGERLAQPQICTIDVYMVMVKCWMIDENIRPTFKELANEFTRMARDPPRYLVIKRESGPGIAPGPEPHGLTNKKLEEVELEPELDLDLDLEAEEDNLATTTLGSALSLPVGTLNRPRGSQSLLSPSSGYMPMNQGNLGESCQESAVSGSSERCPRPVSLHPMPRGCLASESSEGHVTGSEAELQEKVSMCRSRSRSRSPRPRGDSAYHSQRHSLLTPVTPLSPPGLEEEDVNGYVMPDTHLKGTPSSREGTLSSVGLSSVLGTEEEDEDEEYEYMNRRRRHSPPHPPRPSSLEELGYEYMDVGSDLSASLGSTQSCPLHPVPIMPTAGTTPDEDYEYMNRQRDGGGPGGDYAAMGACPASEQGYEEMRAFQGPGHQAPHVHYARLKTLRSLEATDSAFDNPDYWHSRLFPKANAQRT

T2 sequence (P00533 25-1210 G719C limits assumed): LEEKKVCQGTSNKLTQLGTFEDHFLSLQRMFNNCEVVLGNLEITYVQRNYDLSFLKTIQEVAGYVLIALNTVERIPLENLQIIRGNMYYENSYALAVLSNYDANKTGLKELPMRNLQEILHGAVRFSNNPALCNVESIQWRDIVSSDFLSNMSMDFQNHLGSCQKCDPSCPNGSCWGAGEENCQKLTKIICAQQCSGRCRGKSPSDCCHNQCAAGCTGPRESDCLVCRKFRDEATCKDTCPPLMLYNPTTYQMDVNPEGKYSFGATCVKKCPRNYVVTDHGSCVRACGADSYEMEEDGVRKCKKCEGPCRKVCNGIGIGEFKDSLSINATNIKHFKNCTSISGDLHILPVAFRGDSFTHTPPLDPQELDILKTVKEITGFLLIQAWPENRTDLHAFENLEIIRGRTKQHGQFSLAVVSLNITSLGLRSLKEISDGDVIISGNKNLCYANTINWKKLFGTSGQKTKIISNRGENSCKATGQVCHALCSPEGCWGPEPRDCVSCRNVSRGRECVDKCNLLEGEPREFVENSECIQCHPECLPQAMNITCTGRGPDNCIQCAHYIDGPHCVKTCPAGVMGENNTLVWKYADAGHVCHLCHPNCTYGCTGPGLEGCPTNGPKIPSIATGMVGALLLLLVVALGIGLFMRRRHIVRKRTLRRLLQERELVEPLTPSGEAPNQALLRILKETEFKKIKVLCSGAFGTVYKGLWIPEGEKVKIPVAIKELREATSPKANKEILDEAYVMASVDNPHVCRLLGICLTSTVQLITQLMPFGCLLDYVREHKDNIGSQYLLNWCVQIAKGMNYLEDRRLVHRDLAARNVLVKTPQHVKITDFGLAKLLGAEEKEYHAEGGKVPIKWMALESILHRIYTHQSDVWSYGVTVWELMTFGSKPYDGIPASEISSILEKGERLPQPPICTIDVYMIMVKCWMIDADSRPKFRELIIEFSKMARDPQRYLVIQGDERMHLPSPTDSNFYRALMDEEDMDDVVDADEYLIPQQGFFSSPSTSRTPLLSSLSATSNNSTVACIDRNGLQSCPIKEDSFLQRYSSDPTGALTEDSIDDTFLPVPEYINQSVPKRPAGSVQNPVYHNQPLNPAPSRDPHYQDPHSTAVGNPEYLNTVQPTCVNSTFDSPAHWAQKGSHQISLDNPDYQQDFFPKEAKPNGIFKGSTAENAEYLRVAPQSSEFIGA

Clc1cc(NCC2CC2)c2ncc(-c3ccc4[nH]ncc4c3)n2n1 [compound 2, 6-Chloro-N-(cyclopropylmethyl)-3-(1H-indazol-5-yl)imidazo[1,2-b]pyridazin-8-amine] was tested, and the remaining binding at 1 µM (LZK) was 100%, the remaining binding at 1 µM (EGFR(G719C)) was 91% and the remaining binding at 1 µM (FLT3(K663Q)) was 3.8%. It also gave a remaining binding at 1 µM (ERBB3) of 96%.

Compound O=C(CN1CCOCC1)N[C@H]1CC[C@H](Nc2cc(Cl)nn3c(-c4ccc5[nH]ncc5c4)cnc23)CC1 [compound 26] has a remaining binding at 1 µM (LZK) of 100%, a remaining binding at 1 µM (EGFR(G719C)) of 93% and a remaining binding at 1 µM (FLT3(K663Q)) of 13%. For the same compound, the remaining binding at 1 µM (ERBB3) was 99%.

Work on CN1CCC(CNc2cc(Cl)nn3c(-c4cc5nc(Nc6ccccc6)[nH]c5cc4F)cnc23)CC1 [compound 31, 6-Chloro-3-(6-fluoro-2-(phenylamino)-1H-benzo[d]imidazol-5-yl)-N-((1-methylpiperidin-4-yl)methyl)imidazo[1,2-b]pyridazin-8-amine] yielded a remaining binding at 1 µM (LZK) of 98%, a remaining binding at 1 µM (EGFR(G719C)) of 71% and a remaining binding at 1 µM (FLT3(K663Q)) of 83%. For the same compound, the remaining binding at 1 µM (ERBB3) was 71%.
